Reference: patent US20180273538A1, “PYRROLO[2,3-d]PYRIMIDINE DERIVATIVES, A PROCESS FOR THEIR PREPARATION AND PHARMACEUTICAL COMPOSITIONS CONTAINING THEM” (LES LABORATOIRES SERVIER, priority 2015, published 2018)

target: T1, His-TEV-DYRK1A Kinase domain (aa127-485) (Homo sapiens, UniProt Q13627); test: Kinase ADP assay (ADP Hunter Plus); assay type: biochemical
T1 construct: His-TEV-DYRK1A Kinase domain (aa127-485); His (N); TEV cleavage site (N)

| IC50 [µM] | SMILES |
| --- | --- |
| 0.694 | Cc1nc(N2CCC2c2ccccc2)c2c(-c3ccnc(N)c3)c[nH]c2n1 (stereo not drawn) [Example 103, 4-[2-methyl-4-(2-phenylazetidin-1-yl)-7H-pyrrolo[2,3-d]pyrimadin-5-yl]pyridin-2-amine] |
| 0.121 | Cc1nc(N2CCC(C(F)(F)F)CC2)c2c(-c3ccnc(N)c3)c[nH]c2n1 [Example 105, 4-{2-methyl-4-[4-(trifluoromethyl)piperidin-1-yl]-7H-pyrrolo[2,3-d]pyrimidin-5-yl}pyridin-2-amine] |
| 0.666 | Cc1nc(N2CCCC2C(F)(F)F)c2c(-c3ccnc(N)c3)c[nH]c2n1 (stereo not drawn) [Example 107, 4-{2-methyl-4-[2-(trifluoromethyl)pyrrolidin-1-yl]-7H-pyrrolo[2,3-d]pyrimidin-5-yl}pyridin-2-amine] |
| 0.524 | Cc1nc(N2CC3(CCCCC3)C2)c2c(-c3ccnc(N)c3)c[nH]c2n1 [Example 109, 4-[4-(2-azaspiro[3.5]non-2-yl)-2-methyl-7H-pyrrolo[2,3-d]pyrimidin-5-yl]pyridin-2-amine] |
| 0.048 | Cc1nc(N2CC[C@H]3CCCC[C@H]3C2)c2c(-c3ccnc(N)c3)c[nH]c2n1 [Example 110] |
| 0.013 | Cc1nc(N2CC[C@H]3CCCC[C@@H]3C2)c2c(-c3ccnc(N)c3)c[nH]c2n1 [Example 111, 4-{2-methyl-4-[(4aR,8aS)-octahydro-isoquinolin-2(1H)-yl]-7H-pyrrolo[2,3-d]pyrimidin-5-yl}pyridin-2-amine] |
| 0.234 | Cc1nc(NCC2COc3ccccc32)c2c(-c3ccnc(N)c3)c[nH]c2n1 (stereo not drawn) [Example 112, 5-(2-aminopyridin-4-yl)-N-(2,3-dihydro-1-benzofuran-3-ylmethyl)-2-methyl-7H-pyrrolo[2,3-d]pyrimidin-4-amine] |
| 0.114 | COc1cccnc1C(C)Nc1nc(C)nc2[nH]cc(-c3ccnc(N)c3)c12 (stereo not drawn) [Example 113, 5-(2-aminopyridin-4-yl)-N-[1-(3-methoxypyridin-2-yl)ethyl]-2-methyl-7H-pyrrolo[2,3-d]pyrimidin-4-amine] |
| 0.011 | Cc1nc(N[C@@H]2CCc3ccccc32)c2c(-c3cc(N)nc(N)c3)c[nH]c2n1 [Example 118, 4-{4-[(1R)-2,3-dihydro-1H-inden-1-ylamino]-2-methyl-7H-pyrrolo[2,3-d]pyrimidin-5-yl}pyridine-2,6-diamine] |
| 0.115 | Cc1nc(N(C)Cc2c(F)cccc2F)c2c(-c3ccnc(N)c3)c[nH]c2n1 [Example 120, 5-(2-aminopyridin-4-yl)-N-(2,6-diflurobenzyl)-N,2-dimethyl-7H-pyrrolo[2,3-d]pyrimidin-4-amine] |
| 0.066 | CCC(Nc1nc(C)nc2[nH]cc(-c3ccnc(N)c3)c12)c1ncccc1F (stereo not drawn) [Example 121, 5-(2-aminopyridin-4-yl)-N-[1-(3-fluoropyridin-2-yl)propyl]-2-methyl-7H-pyrrolo[2,3-d]pyrimidin-4-amine] |
| 0.05 | Cc1nc(N[C@@H](C)c2ncccc2F)c2c(-c3ccnc(N)c3)c[nH]c2n1 [Example 122, 5-(2-aminopyridin-4-yl)-N-[(1S)-1-(3-fluoropyridin-2-yl)ethyl]-2-methyl-7H-pyrrolo[2,3-d]pyrimidin-4-amine] |
| 0.296 | Cc1nc(NCCc2ccccn2)c2c(-c3ccnc(N)c3)c[nH]c2n1 [Example 124, 5-(2-aminopyridin-4-yl)-2-methyl-N-[2-(pyridin-2-yl)ethyl]-7H-pyrrolo[2,3-d]pyrimidin-4-amine] |
| 0.418 | Cc1nc(N2C[C@@H](C)O[C@@H](C)C2)c2c(-c3cc(N)nc(N)c3)c[nH]c2n1 [Example 126, 4-{4-[(2R,6S)-2,6-dimethylmorpholin-4-yl]-2-methyl-7H-pyrrolo[2,3-d]pyrimidin-5-yl}pyridine-2,6-diamine + 4-{4-[(2S,6R)-2,6-dimethylmorpholin-4-yl]-2-methyl-7H-pyrrolo[2,3-d]pyrimidin-5-yl}pyridine-2,6-diamine] |
| 0.072 | Cc1nc(Nc2ccccc2)c2c(-c3ccnc(N)c3)c[nH]c2n1 [Example 129, 5-(2-aminopyridin-4-yl)-2-methyl-N-phenyl-7H-pyrrolo[2,3-d]pyrimidin-4-amine] |
| 0.26 | Cc1nc(Nc2ccccc2C(F)(F)F)c2c(-c3ccnc(N)c3)c[nH]c2n1 [Example 130, 5-(2-aminopyridin-4-yl)-2-methyl-N-[2-(trifluoromethyl)phenyl]-7H-pyrrolo[2,3-d]pyrimidin-4-amine] |
| 0.6 | Cc1nc(Nc2ccccc2C(F)(F)F)c2c(-c3cc(N)nc(N)c3)c[nH]c2n1 [Example 131, 4-(2-methyl-4-{[2-(trifluoromethyl)phenyl]amino}-7H-pyrrolo[2,3-d]pyrimidin-5-yl)pyridine-2,6-diamine] |
| 0.269 | COC1CCN(c2nc(C)nc3[nH]cc(-c4ccnc(N)c4)c23)CC1 [Example 133, 4-[4-(4-methoxypiperidin-1-yl)-2-methyl-7H-pyrrolo[2,3-d]pyrimidin-5-yl]pyridin-2-amine] |
| 0.848 | Cc1nc(N2CCOCC2)c2c(-c3ccnc(N)c3)c[nH]c2n1 [Example 134, 4-[2-methyl-4-(morpholin-4-yl)-7H-pyrrolo[2,3-d]pyrimidin-5-yl]pyridin-2-amine] |
| 0.091 | Cc1nc(N2CCn3ccnc3C2)c2c(-c3ccnc(N)c3)c[nH]c2n1 [Example 135, 4-[4-(5,6-dihydroimidazo[1,2-a]pyrazin-7(8H)-yl)-2-methyl-7H-pyrrolo[2,3-d]pyrimidin-5-yl]pyridin-2-amine] |

| IC50 [µM] | SMILES |
| --- | --- |
| 0.169 | Cc1nc(N2CCc3nccnc3C2)c2c(-c3ccnc(N)c3)c[nH]c2n1 [Example 136, 4-[4-(7,8-dihydropyrido[3,4-b]pyrazin-6(5H)-yl)-2-methyl-7H-pyrrolo[2,3-d]primidin-5-yl]pyridin-2-amine] |
| 0.336 | Cc1nc(N2CCOC(C)C2)c2c(-c3ccnc(N)c3)c[nH]c2n1 (stereo not drawn) [Example 137, 4-[2-methyl-4-(2-methylmorpholin-4-yl)-7H-pyrrolo[2,3-d]pyrimidin-5-yl]pyridin-2-amine] |
| 0.407 | COC1CCCN(c2nc(C)nc3[nH]cc(-c4ccnc(N)c4)c23)C1 (stereo not drawn) [Example 138, 4-[4-(3-methoxypiperidin-1-yl)-2-methyl-7H-pyrrolo[2,3-d]pyrimidin-5-yl]pyridin-2-amine] |
| 0.883 | COC1CCN(c2nc(C)nc3[nH]cc(-c4cc(N)nc(N)c4)c23)CC1 [Example 139, 4-[4-(4-methoxypiperidin-1-yl)-2-methyl-7H-pyrrolo[2,3-d]pyrimidin-5-yl]pyridine-2,6-diamine] |
| 1.22 | Cc1nc(N2CCOCC2)c2c(-c3cc(N)nc(N)c3)c[nH]c2n1 [Example 140, 4-[2-methyl-4-(morpholin-4-yl)-7H-pyrrolo[2,3-d]pyrimidin-5-yl]pyridine-2,6-diamine] |
| 0.417 | Cc1nc(N2CCn3ccnc3C2)c2c(-c3cc(N)nc(N)c3)c[nH]c2n1 [Example 141, 4-[4-(5,6-dihydroimidazo[1,2-a]pyrazin-7(8H)-yl)-2-methyl-7H-pyrrolo[2,3-d]pyrimidin-5-yl]pyridine-2,6-diamine] |
| 0.512 | Cc1nc(N2CCc3nccnc3C2)c2c(-c3cc(N)nc(N)c3)c[nH]c2n1 [Example 142, 4-[4-(7,8-dihydropyrido[3,4-b]pyrazin-6(5H)-yl)-2-methyl-7H-pyrrolo[2,3-d]pyrimidin-5-yl]pyridine-2,6-diamine] |
| 1.06 | Cc1nc(N2CCOC(C)C2)c2c(-c3cc(N)nc(N)c3)c[nH]c2n1 (stereo not drawn) [Example 143, 4-[2-methyl-4-(2-methylmorpholin-4-yl)-7H-pyrrolo[2,3-d]pyrimidin-5-yl]pyridine-2,6-diamine] |
| 0.545 | COC1CCCN(c2nc(C)nc3[nH]cc(-c4cc(N)nc(N)c4)c23)C1 (stereo not drawn) [Example 144, 4-[4-(3-methoxypiperidin-1-yl)-2-methyl-7H-pyrrolo[2,3-d]pyrimidin-5-yl]pyridine-2,6-diamine] |
| 0.172 | COc1cccc(C(F)(F)F)c1CNc1nc(C)nc2[nH]cc(-c3ccnc(C)c3)c12 [Example 146, N-[2-methoxy-6-(trifluoromethyl)benzyl]-2-methyl-5-(2-methylpyridin-4-yl)-7H-pyrrolo[2,3-d]pyrimidin-4-amine] |
| 0.17 | Nc1cc(-c2c[nH]c3nc(C4CC4)nc(NCc4c(F)cccc4F)c23)ccn1 [Example 147, 5-(2-aminopyridin-4-yl)-2-cyclopropyl-N-(2,6-difluorobenzyl)-7H-pyrrolo[2,3-d]pyrimidin-4-amine] |
| 0.734 | C=C(C)c1nc(NCc2c(F)cccc2F)c2c(-c3ccnc(N)c3)c[nH]c2n1 [Example 149, 5-(2-aminopyridin-4-yl)-N-(2,6-difluorobenzyl)-2-(prop-1-en-2-yl)-7H-pyrrolo[2,3-d]pyrimidin-4-amine] |
| 0.028 | C=Cc1nc(NCc2c(F)cccc2F)c2c(-c3ccnc(N)c3)c[nH]c2n1 [Example 151, 5-(2-aminopyridin-4-yl)-N-(2,6-difluorobenzyl)-2-ethenyl-7H-pyrrolo[2,3-d]pyrimidin-4-amine] |
| 0.024 | C#Cc1nc(-c2ccc3c(c2)OCO3)c2c(-c3cc(N)nc(N)c3)c[nH]c2n1 [Example 155, 4-[4-(1,3-benzodioxol-5-yl)-2-ethynyl-7H-pyrrolo[2,3-d]pyrimidin-5-yl]pyridine-2,6-diamine] |
| 0.029 | C#Cc1nc(-c2ccc3c(c2)OCO3)c2c(-c3ccnc(N)c3)c[nH]c2n1 [Example 156, 4-[4-(1,3-benzodioxol-5-yl)-2-ethynyl-7H-pyrrolo[2,3-d]pyrimidin-5-yl]pyridin-2-amine] |
| 0.26 | N#Cc1nc(NCc2c(F)cccc2F)c2c(-c3ccnc(N)c3)c[nH]c2n1 [Example 157, 5-(2-aminopyridin-4-yl)-4-[(2,6-difluorobenzyl)amino]-7H-pyrrolo[2,3-d]pyrimidine-2-carbonitrile] |
| 0.184 | Cc1nc(CCc2ccccc2)c2c(-c3ccnc(N)c3)c[nH]c2n1 [Example 160] |
| 0.014 | COc1cc(F)cc(-c2nc(C)nc3[nH]cc(-c4ccnc(N)c4)c23)c1 [Example 162, 4-[4-(3-fluoro-5-methoxyphenyl)-2-methyl-7H-pyrrolo[2,3-d]pyrimidin-5-yl]pyridin-2-amine] |
| 0.301 | Cc1nc(-c2ccc(CN3CCCC3)cc2)c2c(-c3ccnc(N)c3)c[nH]c2n1 [Example 165] |
